# Source: PMC10067956, “Pyrazole derivatives of pyridine and naphthyridine as proapoptotic agents in cervical and breast cancer cells” (Scientific Reports, 2023)
# Read-outs that look alike come from different tables or passages of the source.
# Assays:
# BHK-21 cells = experiment: MTT cell viability assay, non-cancerous BHK-21; assay type: cell-based, Baby Hamster; details: Mesocricetus auratus, 24 h, read-out: IC50 (µM) ± SEM, BHK-21 cell line
# Description: (§1) The anti-proliferative activity of the studied compounds was determined against breast (MCF-7) and cervical (HeLa) cancer cells by the MTT cell viability assay as described earlier[44],[45]. BHK-21 cells were used as non-cancerous cells to study the effect of these compounds on normal cells. Briefly, 1 × 10^4 cells/well were seeded in 96-well microtiter plate and placed in an incubator (Heracell™ VIOS 160i, Thermo-Fisher Scientific) set for 5% CO2 at 37 °C. The stock solutions of compounds were prepared at 10 mM concentration in DMSO. Initial working solutions were prepared in cell culture medium at 1 mM concentration. […] After 24 h, medium in each well was aspirated and cells were treated for 4 h with serum free medium containing 0.2 mg/mL MTT reagent. The solubilizing reagent (10% acidified sodium dodecyl sulfate in propanol in a 1:1 ratio) was added to solubilize formazan crystals. Plates were kept at 37 °C for 30 min and then placed on a gyratory shaker for few min for complete solubilization of formazan crystals. The optical density was measured at 570 nm by microplate reader and IC50 values were calculated from three independent experiments as previously reported.
# MCF-7 cells [1] = experiment: Mitochondrial membrane potential (JC-1), MCF-7; assay type: cell-based; details: IC50 and 2 × IC50, 24 h
# Description: (§2) Mitochondrial membrane potential was determined by a fluorimetric method using fluorescent dye 5′,5′,6′,6′-tetrachloro-1′,1′,3′,3′-[…] (JC-1). Briefly, 1 × 10^5 cells were grown and treated with IC50 and 2 × IC50 values of compounds 5j and 5k for 24 h. Cells were harvested, pelletized and treated with 0.25 µM of fluorescent dye JC-1. Each sample was transferred to a flat-bottomed black 96-well plate, which was kept in the dark for 20 min. Fluorescence emission was measured by a fluorescent microplate reader (FLUOstar Omega BMG Labtech, Germany) at 590 nm and 520 nm for j-aggregates and j-monomers. Results were measured as ratio of red/green fluorescence as previously reported.
# caspase-9 [2] = experiment: Activated caspase-9 in MCF-7 cells; assay type: cell-based; details: versus control
# Text: (§3) Results were represented as fold increase in activated caspase-9 and caspase-3/7 as compared to control as previously reported.
# caspase-7 = experiment: Activated caspase-7 in MCF-7 cells; assay type: cell-based; details: versus control
# Text: as §3
# MCF-7 cells [3] = experiment: Oxidative stress (H2DCF-DA staining), MCF-7; assay type: cell-based; details: IC50 and 2 × IC50
# Description: (§4) After washing with sterile PBS, cells were fixed and 10 µL (0.01 mg/mL) of H2DCF-DA dye was added on microscopic slides. After an incubation of 10 min at room temperature in the dark, fluorescence photomicrographs were obtained as previously reported.
# MCF-7 cells [4] = experiment: Fluorescence microscopy of apoptosis (PI, DAPI), MCF-7; assay type: cell-based; details: IC50 and 2 × IC50, 24 h
# Description: (§5) Morphological changes in compound treated cancer cells were identified using propidium iodide (PI) and 4′,6-diamidino-2-phenylindole (DAPI) staining with observing under a fluorescence microscope (Nikon ECLIPSE Ni–U, Japan). […] After 24 h, media was aspirated, cells were washed with sterile phosphate buffered saline (PBS) and fixed by using 4% formalin and 0.1% Triton X–100 as adherent cells fixation solution. Further, 10 µL (0.01 mg/mL) of PI or DAPI solution was added on slides and kept for 10 min in dark. Fluorescence photomicrographs were captured as previously reported.
# HeLa cells [5] = experiment: MTT cell viability assay, HeLa; assay type: cell-based; details: 24 h; for inhibition at 100 µM: read-out: %Inhibition at 100 µM, HeLa cell line; for IC50: read-out: IC50 (µM) ± SEM, HeLa Cell Line
# Description: as §1
# MCF-7 cells [6] = experiment: LDH cytotoxicity assay, MCF-7; assay type: cell-based; details: IC50 and 2 × IC50
# Description: (§6) Briefly, 1 × 10^4 cells/well were seeded in a flat bottom 96 well cell culture plate and kept for overnight incubation. Cells were treated with potent compounds 5j and 5k at the IC50 and 2 × IC50 values. The plate was centrifuged at 1500 rpm for 3 min and the supernatant (50 µL) transferred to a new sterile 96-well plate. After addition of substrate mix (50 µL), plate was placed at room temperature for 30 min. The absorbance was measured at 490 nm and 680 nm using microplate reader (FLUOstar Omega, Ortenberg, Germany). Cytotoxicity was measured as described earlier.
# MCF-7 cells [7] = experiment: MTT cell viability assay, MCF-7; assay type: cell-based; details: Homo sapiens; for inhibition at 100 µM: MCF7, 100 µM, 24 h, read-out: %Inhibition at 100 µM, MCF-7 cell line
# Description: as §1
# HeLa cells [8] = experiment: Mitochondrial membrane potential (JC-1), HeLa; assay type: cell-based; details: IC50 and 2 × IC50, 24 h
# Description: as §2
# herring sperm DNA = experiment: DNA binding studies (UV absorption); details: 200 µM compound; 0 to 396 µM DNA; hypochromicity, no red or blue shift
# Description: A stock solution of 5 mg of DNA was prepared in 10 mL of distilled water and the purity of the DNA (A260/A280) was in the range of 1.6 to 1.9. Compound 5j was tested at a final concentration of 200 µM with varying end concentrations (0 to 396 µM) of DNA. The plate was placed at room temperature for 30 min and the UV absorption spectrum was recorded by microplate reader (FLUOstar Omega BMG Labtech, Ortenberg, Germany).
# HeLa cells [9] = experiment: Cell cycle analysis by flow cytometry; assay type: cell-based; details: IC50 and 2 × IC50, PI staining
# Description: Briefly, HeLa cells (2 × 10^5 cells/mL) were grown and treated with IC50 and 2 × IC50 values of potent compound 5j. Cells were harvested and washed three times with PBS to remove traces of cell culture medium. Cells were fixed in 70% ethanol for 24 h at − 20 °C. Pelletized cells were then re-suspended in 1 mL of a solution containing PI (20 µg/mL), RNase A (50 µg/mL) and 0.1% (v/v) Triton X-100. Samples were kept in the dark for 30 min at room temperature and analyzed within an hour as reported earlier.
# HeLa cells [10] = experiment: Alkaline comet assay; assay type: cell-based
# Description: Comet assay is a sensitive method to determine DNA damage which was performed after some modifications in a published protocol. […] The cervical cancer (HeLa) cells were treated with IC50 value of potent compound 5j for 24 h. Cells were harvested, collected and centrifuged to obtain a pellet. Pelleted cells were re-suspended in media. Untreated cells were used as control cells. For the positive control, 2 × 10^4 cells were treated with 20 µM of freshly prepared hydrogen peroxide for 30 min. Slides were prepared by coating with 1% normal melting point agarose (NMPA) on one side and then dried. Samples (2 × 10^4 cells/sample) were re-suspended in 1 mL of PBS. In a tube, 0.4 mL cell suspension was mixed with 1.2 mL of 0.9% low melting point agarose (LMPA) and mixed thoroughly by pipetting. A cell suspension of 65 µL was laid on coated slide and evenly distributed by placing a coverslip over it. Slides were placed at − 20 °C for 10 min. Then the slides were placed at 4 °C in the dark in a lysis buffer of 100 mM EDTA, 10 mM Trizma base, 2.5 M sodium chloride, 10% DMSO and 1% Triton X-100 in distilled water with a pH of 10. After an overnight incubation, slides were washed with chilled distilled water. These slides were then placed in electrophoresis chamber (Wealtec, USA) having chilled (4 °C) alkali unwinding solution (300 mM sodium hydroxide and 1 mM EDTA in distilled water). Electrophoresis was carried out at an adjusted voltage (between 0.7 and 1.0 V/cm) for 35 min in an electrophoresis tank. Slides were then immersed in neutralization solution (0.4 M Trizma base in 800 mL water, pH 7.5) for 10 min in dark. Propidium iodide (20 µL of 0.01 mg/mL) was used as fluorescent dye to stain DNA. Slides were placed in dark at room temperature. After 10 min, images were captured using a fluorescence microscope (Nikon ECLIPSE Ni–U, Japan) at an excitation/emission wavelength of 493/632 nm. Microscopic images were analyzed using ImageJ (ij152-win-java8, National Institutes of Health, Bethesda, USA) and OpenComet (OpenComet_imagej_v1.3.1, USA) where the DNA content in the head and tail of the comets were automatically measured by the software. Results of three independent experiments were expressed as tail length ([…]), %DNA in comet tail and comet tail moment.
# caspase-9 [11] = experiment: Activated caspase-9 in HeLa cells; assay type: cell-based; details: versus control
# Text: as §3
# HeLa cells [12] = experiment: LDH cytotoxicity assay, HeLa; assay type: cell-based; details: IC50 and 2 × IC50
# Description: as §6
# HeLa cells [13] = experiment: Oxidative stress (H2DCF-DA staining), HeLa; assay type: cell-based; details: IC50 and 2 × IC50
# Description: as §4
# caspase-3/7 = experiment: Activated caspase-3/7 in HeLa cells; assay type: cell-based; details: versus control
# Text: as §3
# HeLa cells [14] = experiment: Fluorescence microscopy of apoptosis (PI, DAPI), HeLa; assay type: cell-based; details: IC50 and 2 × IC50, 24 h
# Description: as §5
# [15] = 5j 6.4 µM 24 h, H2O2 20 µM 30 min (positive control)
smiles,measurement,setting,value
Cc1[nH]nc2nc(N)c3c(N)nc4ccc(Cl)cc4c3c12 [5k],IC50,BHK-21 cells,8.21 ± 0.57 µM
same,"mitochondrial membrane potential, ratio of red/green fluorescence (JC-1)",MCF-7 cells [1],decrease in red/green ratio
same,fold increase in activated caspase-9,"caspase-9 [2]; at 2 × IC50, 18 h",1.4 folds
same,fold increase in activated caspase-9,"caspase-9 [2]; at IC50, 18 h",1.1 folds
same,fold increase in activated caspase-7,"caspase-7; at 2 × IC50, 18 h",1.8 fold
same,fold increase in activated caspase-7,"caspase-7; at IC50, 18 h",1.4 fold
same,"ROS production, H2DCF-DA staining",MCF-7 cells [3],ROS generation
same,"morphological features of apoptosis, PI and DAPI staining",MCF-7 cells [4],"Cell detachment, shrinkage of cells and condensation of nuclear material was observed"
same,inhibition at 100 µM,HeLa cells [5]; Homo sapiens,96.4%
same,IC50,HeLa cells [5]; Homo sapiens,7.25 ± 0.12 µM
same,leaked LDH (cytotoxic effect),MCF-7 cells [6],dose dependent increase in leaked LDH
same,inhibition at 100 µM,MCF-7 cells [7],69.5%
same,IC50,"MCF-7 cells [7]; MCF7, 24 h, read-out: IC50 (µM) ± SEM, MCF-7 cell line",2.03 ± 0.23 µM
Cc1[nH]nc2nc(N)c3c(N)nc4ccc(F)cc4c3c12 [5j],IC50,BHK-21 cells,27.5 ± 1.32 µM
same,"mitochondrial membrane potential, ratio of red/green fluorescence (JC-1)",HeLa cells [8],decrease in red/green ratio
same,mode of interaction with DNA (absorption spectra),herring sperm DNA,non-covalently bound to DNA
same,cell cycle arrest,HeLa cells [9],G0/G1 arrest
same,DNA damage in comet assay,HeLa cells [10]; 6.4 µM,"DNA damage in treated cells, comparable to positive control"
same,%DNA in tail ± SD,HeLa cells [10]; 5j 6.4 µM 24 h,41.02 ± 7.61%
same,Tail length ± SD,HeLa cells [10]; [15],43 ± 10.3 µm
same,Tail moment ± SD,HeLa cells [10]; [15],23.22 ± 1.61
same,fold increase in activated caspase-9,"caspase-9 [11]; at 2 × IC50, 18 h",2.2 folds
same,fold increase in activated caspase-9,"caspase-9 [11]; at IC50, 18 h",1.4 folds
same,leaked LDH (cytotoxic effect),HeLa cells [12],dose dependent increase in leaked LDH
same,IC50,HeLa cells [5],6.43 ± 0.45 µM
same,inhibition at 100 µM,HeLa cells [5]; Homo sapiens,94.8%
same,IC50,HeLa cells [5]; Homo sapiens,6.4 ± 0.45 µM
same,inhibition at 100 µM,MCF-7 cells [7],47.8%
same,"ROS production, H2DCF-DA staining",HeLa cells [13],ROS generation
same,fold increase in activated caspase-3/7,"caspase-3/7; at 2 × IC50, 18 h",4.8 folds
same,fold increase in activated caspase-3/7,"caspase-3/7; at IC50, 18 h",about 4 folds
same,"morphological features of apoptosis, PI and DAPI staining",HeLa cells [14],"Cell detachment, shrinkage of cells and condensation of nuclear material was observed"
